Test results taken from paper PMC8511016, “Src acts as the target of matrine to inhibit the proliferation of cancer cells by regulating phosphorylation signaling pathways” (Cell Death & Disease, 2021).

Biological target: T1, Src (Homo sapiens, UniProt P12931)
T1 construct: recombinant GST-Src (full-length) and GST-Kinase (270–536 aa); endogenous Src in cell lysates
Assay: matrine-bead pull-down of recombinant GST-Src/GST-Kinase competed by free matrine; CETSA and DARTS in lysates; IC50 from Src kinase activity kit in SKOV3 cells ([…] ATP)
Type: binding

T1 sequence (P12931 2-536): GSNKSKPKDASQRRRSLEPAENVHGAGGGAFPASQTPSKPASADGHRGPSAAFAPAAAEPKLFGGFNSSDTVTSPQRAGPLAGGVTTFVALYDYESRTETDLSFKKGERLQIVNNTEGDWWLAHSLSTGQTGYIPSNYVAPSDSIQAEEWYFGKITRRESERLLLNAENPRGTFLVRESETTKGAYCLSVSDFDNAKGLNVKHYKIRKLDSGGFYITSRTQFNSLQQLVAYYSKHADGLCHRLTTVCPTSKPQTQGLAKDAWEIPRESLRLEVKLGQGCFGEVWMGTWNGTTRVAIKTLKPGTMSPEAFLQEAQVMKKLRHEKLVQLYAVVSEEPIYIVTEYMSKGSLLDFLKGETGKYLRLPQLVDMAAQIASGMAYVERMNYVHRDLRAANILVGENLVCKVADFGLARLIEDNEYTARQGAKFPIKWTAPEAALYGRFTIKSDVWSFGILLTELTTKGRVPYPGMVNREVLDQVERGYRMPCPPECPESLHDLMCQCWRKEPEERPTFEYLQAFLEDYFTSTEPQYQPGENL

`O=C1CCC[C@@H]2[C@H]3CCCN4CCC[C@@H](CN12)[C@@H]34` [MA, matrine] gave an IC50 of 7.37 mM.
